Measured values as given in patent US5962640A, “Methods for preparing novel dipeptide compounds or pharmacuetically acceptable salts thereof” (Japan Energy Corporation, priority 1995, dated 1999).
≈ marks a conversion by molar mass, not a printed value.

Key:
MT-4 cell line = assay: Cytotoxicity to non-infected MT-4 cell line, MTT method; assay type: cell-based; details: non-infected MT-4 cells, 5 day culture
Protocol: According to a test method which was already reported in publications (H.Nakashima et al., Antimicrob. Agents Chemother.36, 1249-1255 (1992), etc.,), anti-HIV activity was evaluated, by using MT-4 cell line and HTLV-IIIB virus, MT-4 cells (2.5×10^4 well, MOI:001) infected with said HTLV-IIIB virus just before the addition were into 96-well microtiter plate wherein each well contained various concentration of tested compound. At the same time, in order to investigate cytotoxicity of tested compounds to MT-4 cell line, non-infected MT-4 cell line was cultured in the presence of various kinds of tested compound. After 5 day culture at 37° C. in a CO2 incubator, the number of vial cells was counted by MTT method. […]

HTLV-IIIB virus = assay: Anti-HIV activity: protection of HTLV-IIIB infected MT-4 cells, MTT method; assay type: cell-based; details: MT-4 cells infected with HTLV-IIIB, 5 day culture; for EC50: Human immunodeficiency virus 1, MT4, 120 h
Protocol: The anti-HIV activity of the dipeptide compound of the present invention was evaluated as described below. That is, the inhibitory action of the compound on formation of HIV virus particles which infects T lymphocyte was evaluated by potency to prevent death of T lymphocyte accompanied by said virus infection.
According to a test method which was already reported in publications (H.Nakashima et al., Antimicrob. Agents Chemother.36, 1249-1255 (1992), etc.,), anti-HIV activity was evaluated, by using MT-4 cell line and HTLV-IIIB virus, MT-4 cells (2.5×10^4 well, MOI:001) infected with said HTLV-IIIB virus just before the addition were into 96-well microtiter plate wherein each well contained various concentration of tested compound. At the same time, in order to investigate cytotoxicity of tested compounds to MT-4 cell line, non-infected MT-4 cell line was cultured in the presence of various kinds of tested compound. After 5 day culture at 37° C. in a CO2 incubator, the number of vial cells was counted by MTT method.
Virus whose infectious value was 3.8×10^4 TCID 50/ml was used.

[1] = Pharmacokinetics in rats, intravenous or intraduodenal administration, plasma concentration; assay type: in vivo
Protocol: Metabolic characteristics of the dipeptide compounds of the present invention was evaluated using rats. Tested compounds dissolved in vehicle was administered intraduodenally or intravenously. After administration, blood was taken and the concentration of residual tested compound in plasma was analyzed. The dosage of the tested compound was described in table 3.

Recombinant HIV protease = biological target: T1, Recombinant HIV protease (Human immunodeficiency virus type 1 group M subtype B, UniProt P04585); assay: HIV protease inhibitory activity (cleavage of synthetic hepta-peptide, HPLC); assay type: biochemical; details: for HIV protease inhibitory activity (%) / inhibition at 0.05 µM: 37° C., 60 min; for inhibition at 5 µM: read-out: HIV protease inhibitory activity (%)
T1 construct: Recombinant HIV protease
Protocol: Recombinant HIV protease (Biochemistry, 250 (9), 264 (1990)) and synthetic hepta-peptide (H-Ser-Gln-Asn-Tyr-Pro-Ile-Val-OH/trifluoroacetic acid salt) were used for assay of protease activity. Peptide fragment H-Pro-Ile-Val-OH formed by cleavage between -Tyr . . . Pro of said substrate after a reaction in the presence of various concentration of tested compound at 37° C. for 60 min. was determined by reversed phase HPLC and the inhibitory rate was calculated (referred to Japanese laid-open unexamined patent, No. 170722/1993).
The concentration of tested compound represents the final concentration thereof of the reaction mixture.

Cc1c(O)cccc1C(=O)N[C@@H](Cc1ccccc1)[C@H](O)C(=O)N1CSC[C@H]1C(=O)NC(C)(C)C [Compound of example 21, (R)-N-tert-butyl-3-[(2S,3S)-2-hydroxy-3-[3-hydroxy-2-methylbenzoy 1]amino-4-phenylbutanoyl]-1,3-thiazolidine-4-carboxamide]
Cytotoxicity CC50 (MT-4 cell line): 184 µg/mL | Anti-HIV activity EC50 (HTLV-IIIB virus): 0.70 µg/mL | AUC ([1]; i.d., 20.0 mg/kg): 101 µg/mL/min | AUC ([1]; i.v., 10.0 mg/kg): 111 µg/mL/min

Cc1c(O)cccc1C(=O)N[C@@H](Cc1ccccc1)[C@H](O)C(=O)N1CSC(C)(C)[C@H]1C(=O)NC(C)(C)C [Compound of example 22, (R)-N-tert-butyl-3-[(2S,3S)-2-hydroxy-3-[3-hydroxy-2-methylbenzoy 1]amino-4-phenylbutanoyl]-5,5-dimethyl-1,3-thiazolidine-4-carboxamide]
HIV protease inhibitory activity (%) (Recombinant HIV protease; concentration 50 nM (final)): 87.6% | HIV protease inhibitory activity (%) (Recombinant HIV protease; concentration 5 μM (final)): 99.0% | Cytotoxicity CC50 (MT-4 cell line): 156 µg/mL | Anti-HIV activity EC50 (HTLV-IIIB virus): 0.15 µg/mL | AUC ([1]; i.d., 20.0 mg/kg): 106 µg/mL/min | AUC ([1]; i.v., 10.0 mg/kg): 111 µg/mL/min

Cc1c(O)cccc1C(=O)N[C@@H](Cc1ccccc1)[C@H](O)C(=O)N1CCC[C@H]1C(=O)NC(C)(C)C [Compound of example 24, N-tert-butyl-1-[(2S,3S)-2-hydroxy-3-N-[3-hydroxy-2-methylbenzoyl]amino-4-phenylbutanoyl]-L-prolinamide]
HIV protease inhibitory activity (%) (Recombinant HIV protease; concentration 50 nM (final)): 17.6% | HIV protease inhibitory activity (%) (Recombinant HIV protease; concentration 5 μM (final)): 94.2% | Cytotoxicity CC50 (MT-4 cell line): 231 µg/mL | Anti-HIV activity EC50 (HTLV-IIIB virus): 1.97 µg/mL

Cc1c(O)cccc1C(=O)N[C@@H](Cc1ccccc1)[C@H](O)C(=O)N1CS(=O)(=O)C[C@H]1C(=O)NC(C)(C)C [Compound of example 28, (R)-N-tert-butyl-3-[(2S,3S)-2-hydroxy-3-(2-methyl-3-hydroxybenzoyl)amino-4-phenylbutanoyl]-1,3-thiazolidine-1,1-dioxide-4-carboxamide]
HIV protease inhibitory activity (%) (Recombinant HIV protease; concentration 50 nM (final)): 23.8% | HIV protease inhibitory activity (%) (Recombinant HIV protease; concentration 5 μM (final)): 96.1% | Cytotoxicity CC50 (MT-4 cell line): 146 µg/mL | Anti-HIV activity EC50 (HTLV-IIIB virus): 1.80 µg/mL

Cc1c(O)cccc1C(=O)N[C@@H](Cc1ccccc1)[C@H](O)C(=O)N1CO[C@H](C)[C@H]1C(=O)NC(C)(C)C [Compound of example 30, (4S,5R)-N-tert-butyl-3-[(2S,3S)-2-hydroxy-3-(2-methyl-3-hydroxybenzoyl)amino-4-phenylbutanoyl]-5-methyl-1,3-oxazolidine-4-carboxamide]
inhibition at 0.05 µM (Recombinant HIV protease; concentration 50 nM (final)): 21.5% | inhibition at 5 µM (Recombinant HIV protease): 96.9% | Cytotoxicity CC50 (MT-4 cell line): 191 µg/mL | EC50 (HTLV-IIIB virus): 1.4 µg/mL (≈ 2.81 µM)

CCc1c(O)cccc1C(=O)N[C@@H](Cc1ccccc1)[C@H](O)C(=O)N1CSC[C@H]1C(=O)NC(C)(C)C [Compound of example 31, (R)-N-tert-butyl-3-[(2S,3S)-2-hydroxy-3-(2-ethyl-3-hydroxybenzoyl)amino-4-phenylbutanoyl]-1,3-thiazolidine-4-carboxamide]
inhibition at 0.05 µM (Recombinant HIV protease; concentration 50 nM (final)): 45.6% | inhibition at 5 µM (Recombinant HIV protease): 97.5% | Cytotoxicity CC50 (MT-4 cell line): 168 µg/mL | EC50 (HTLV-IIIB virus): 1.46 µg/mL (≈ 2.84 µM) | AUC ([1]; i.d., 10.0 mg/kg): 99 µg/mL/min | AUC ([1]; i.v., 10.0 mg/kg): 276 µg/mL/min | MRT ([1]; i.v., 10.0 mg/kg): 1.6 h

Cc1ccccc1CNC(=O)[C@@H]1CSCN1C(=O)[C@@H](O)[C@H](Cc1ccccc1)NC(=O)c1cccc(O)c1C [Compound of example 34, (R)-N-(2-methylbenzyl)-3-[(2S,3S)-3-(3-hydroxy-2-methylbenzoyl)amino-2-hydroxy-4-phenylbutanoyl]-1,3-thiazolidine-4-carboxamide]
inhibition at 0.05 µM (Recombinant HIV protease; concentration 50 nM (final)): 69.8% | inhibition at 5 µM (Recombinant HIV protease): 96.7% | Cytotoxicity CC50 (MT-4 cell line): 24.5 µg/mL | EC50 (HTLV-IIIB virus): 5.35 µg/mL (≈ 9.77 µM) | AUC ([1]; i.d., 10.0 mg/kg): 40 µg/mL/min | AUC ([1]; i.v., 10.0 mg/kg): 124 µg/mL/min

CCc1c(O)cccc1C(=O)N[C@@H](Cc1ccccc1)[C@H](O)C(=O)N1CSC[C@H]1C(=O)NCc1ccccc1C [Compound of example 35, (R)-N-(2-methylbenzyl)-3-[(2S,3S)-3-(2-ethyl-3-hydroxybenzoyl)amino-2-hydroxy-4-phenylbutanoyl]-1,3-thiazolidine-4-carboxamide]
inhibition at 0.05 µM (Recombinant HIV protease; concentration 50 nM (final)): 48.8% | inhibition at 5 µM (Recombinant HIV protease): 98.1% | Cytotoxicity CC50 (MT-4 cell line): 90.9 µg/mL | EC50 (HTLV-IIIB virus): 4.15 µg/mL (≈ 7.39 µM)

CCc1c(O)cccc1C(=O)N[C@@H](Cc1ccccc1)[C@H](O)C(=O)N1CSC(C)(C)[C@H]1C(=O)NC(C)(C)C [Compound of example 36, (R)-N-tert-butyl-3-[(2S,3S)-3-(2-ethyl-3-hydroxybenzoyl)amino-2-hydroxy-4-phenylbutanoyl]-5,5-dimethyl-1,3-thiazolidine-4-carboxamide]
inhibition at 0.05 µM (Recombinant HIV protease; concentration 50 nM (final)): 83.5% | inhibition at 5 µM (Recombinant HIV protease): > 99% | Cytotoxicity CC50 (MT-4 cell line): 103 µg/mL | EC50 (HTLV-IIIB virus): 0.54 µg/mL (≈ 0.997 µM) | AUC ([1]; i.d., 10.0 mg/kg): 64 µg/mL/min | AUC ([1]; i.v., 10.0 mg/kg): 174 µg/mL/min

CCc1c(O)cccc1C(=O)N[C@@H](Cc1ccccc1)[C@H](O)C(=O)N1CSC(C)(C)[C@H]1C(=O)NCc1ccccc1C [Compound of example 38, (R)-N-(2-methylbenzyl)-3-[(2S,3S)-3-(2-ethyl-3-hydroxybenzoyl)amino-2-hydroxy-4-phenylbutanoyl]-5,5-dimethyl-1,3-thiazolidine-4-carboxamide]
inhibition at 0.05 µM (Recombinant HIV protease; concentration 50 nM (final)): 97.3% | inhibition at 5 µM (Recombinant HIV protease): > 99% | Cytotoxicity CC50 (MT-4 cell line): 19.5 µg/mL | EC50 (HTLV-IIIB virus): 0.18 µg/mL (≈ 0.305 µM)

CSC[C@H](NC(=O)COc1cccc2cnccc12)C(=O)N[C@@H](Cc1ccccc1)[C@H](O)C(=O)N1CSC[C@H]1C(=O)NC(C)(C)C [KNI-272, (R)-3-[(2S,3S)-3-(N-(isoquinoline-5-yloxy)acetyl-methylthio-L-alanyl)amino-2-hydroxy-4-phenylbutanoyl]1,3-thiazolidine-4-N'-t-butylcarboxamide, reference compound]
Cytotoxicity CC50 (MT-4 cell line): 115 µg/mL | Anti-HIV activity EC50 (HTLV-IIIB virus): 0.21 µg/mL | AUC ([1]; i.d., 10.0 mg/kg): 98 µg/mL/min | AUC ([1]; i.v., 10.0 mg/kg): 224 µg/mL/min
